Patent US5466829A, “Ginkgolide derivatives and a process for preparing them” (priority 1991, dated 1995)
pIC50: −log10 of the molar value. Like-named read-outs stand apart in the source and are kept apart here.

System: Platelet Activating Factor induced platelet aggregation
Test: Platelet aggregation inhibiting effect of rabbit by PAF (platelet rich plasma, Chrono-log aggregometer)
Type: cell-based, New Zealand White Rabbit
Conditions: for pIC50: read-out: IC50, 50% of the inhibition concentration, platelet aggregation inhibiting effect; for platelet aggregation inhibiting activity compared with Ginkgolide B: rabbit PRP, PAF-induced, comparison in words
Protocol: The blood gathering in the ear artery of the New Zealand White Rabbit of weight 3~3.5 kg was mixed with 3.8% sodium citrate solution at the ratio of 1:9. After centrifuging for 10 minutes at 1000 rpm, the upper Platelet Rich Plasma(PRP) layer was taken. Again after centrifuging for 10 minutes at 3000 rpm, the upper Platelet Poor Plasma(PPP) was taken.
After measuring the platelet figures of the PRP using the Coulter counter, the platelet figures was adjusted to 3×10^5 /μl by diluting with PPP.
The ginkgolide derivatives which were obtained from the above example 1 and 5~9 was investigated platelet aggregation inhibiting effect by that 270 μl of PRP and 30 μl of the derivative solution was treated using the Chrono-log aggregometer which the light tansmittance of PPP was fixed to 100% and the light tansmittance of PRP was fixed to 0% and then 30 μl of Platelet Activating Factor of 5×10^-9 M and 5×10^-8 M concentration was added.
Then, IC50, 50% of the inhibition concentration, of derivatives was searched.

[1] = rabbit PRP adjusted to 3×10^5 /μl platelets, aggregation induced by PAF of 5×10^-9 M and 5×10^-8 M
[2] = Oryctolagus cuniculus, Platelet
[3] = Oryctolagus cuniculus, Platelet, rabbit PRP adjusted to 3×10^5 /μl platelets, aggregation induced by PAF of 5×10^-9 M and 5×10^-8 M

Compound | pIC50 [1] | platelet aggregation inhibiting activity compared with Ginkgolide B | pIC50 [2] | pIC50 [3]
3-dehydroxy- 1,10-methylenedioxy-Ginkgolide B [formula (IV)] | 5.31 | low than the Ginkgolide B in its activity |  | 
3-dihydroxy-1,10-methylenedioxy-14-epi-Ginkgolide B [formula (III)] | 5.16 | low than the Ginkgolide B in its activity |  | 
C[C@@H]1C(=O)O[C@H]2C[C@@]34[C@H]5C[C@@H](C(C)(C)C)[C@]36[C@@H](OC(=O)[C@@H]6O)O[C@@]4(C(=O)O5)[C@]21O [Ginkgolide A, reference compound] |  |  | 5.76 | 
CC1C(=O)OC2C(O)C34C5CC(C(C)(C)C)C36C(OC(=O)C6O)OC4(C(=O)O5)C12O (centres unmarked) [Ginkgolide B, reference compound] |  |  |  | 6.37
C[C@@H]1C(=O)OC2C1C13OC4OC(=O)C(O)C45C(C(C)(C)C)CC(OC1=O)C35C2O (some centres unmarked) [formula (I-a), 3-dehydroxy-Ginkgolide B] |  | low than the Ginkgolide B in its activity | 5.58 | 
C[C@H]1C(=O)OC2C1C13OC4OC(=O)C(O)C45C(C(C)(C)C)CC(OC1=O)C35C2O (stereo partly drawn) [formula (I-b), 3-dehydroxy-14-epi-Ginkgolide B] |  |  | 4.89 | 
C[C@@H]1C(=O)OC2C3OCOC4C(=O)OC5OC6(C(=O)OC7CC(C(C)(C)C)C54C736)C21O (some centres unmarked) [formula (II), 1,10-methylenedioxy-Ginkgolide B] |  | low than the Ginkgolide B in its activity |  | 5.98
